# Test results reported in patent US9695155B2, “Herbicidal substituted pyrimidinyloxy benzene compounds” (E. I. DU PONT DE NEMOURS AND COMPANY, priority 2013, dated 2017).
# Tests used:
# velvetleaf = assay: Test C preemergence; type: in vivo, Abutilon theophrasti; settings: Abutilon theophrasti, pre-emergence
# How it was run: (§1)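 Injury was assessed visually against controls 13 to 15 days after application, with 0 meaning no effect and 100 full control; missing entries are shown as a dash. Preemergence sprays hit seeded loam–sand soil, postemergence sprays hit 1- to 4-leaf plants.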
# Italian ryegrass [1] = assay: Test C preemergence; type: in vivo, Lolium multiflorum; settings: Lolium multiflorum, pre-emergence
# How it was run: as §1
# lambsquarters = assay: Test C preemergence; type: in vivo, Chenopodium album; settings: Chenopodium album, pre-emergence
# How it was run: as §1
# soybean = assay: Test C postemergence; type: in vivo, Glycine max; settings: Glycine max, post-emergence
# How it was run: as §1
# wheat, winter = assay: Test C preemergence; type: in vivo, Triticum aestivum; settings: Triticum aestivum, pre-emergence
# How it was run: as §1
# giant foxtail [2] = assay: Test A preemergence; type: in vivo, Setaria faberii; settings: Setaria faberi, pre-emergence, 240 h
# How it was run: (§2)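 Greenhouse pot test, loam/sand soil. Formulation: non-phytotoxic solvent mix plus surfactant. Pre: directed spray onto soil after sowing. Post: plants at 1–2 leaf, 2–10 cm. Rated visually vs untreated controls at ~10 d, 0 (no effect) to 100 (complete control).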
# giant foxtail [3] = assay: Test A postemergence; type: in vivo, Setaria faberii; settings: Setaria faberi, post-emergence, 240 h
# How it was run: as §2
# barnyardgrass [4] = assay: Test A postemergence; type: in vivo, Echinochloa crus-galli; settings: Echinochloa crus-galli, post-emergence, 240 h
# How it was run: as §2
# pigweed = assay: Test A postemergence; type: in vivo, Amaranthus retroflexus; settings: Amaranthus retroflexus, post-emergence
# How it was run: as §2
# johnsongrass = assay: Test C postemergence; type: in vivo, Sorghum halepense; settings: Sorghum halepense, post-emergence
# How it was run: as §1
# Heteranthera limosa = assay: Test B flooded paddy test; type: in vivo; settings: Heteranthera limosa, Flood, 250 g ai/ha; 0 to 100 scale where 0 is no effect and 100 is complete control; read-out: Plant response rating, Ducksalad
# How it was run: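 Scores from 0 (no effect) to 100 (complete control) are visual comparisons with controls, taken 13 to 15 days after compound was applied into floodwater 3 cm deep around 2-leaf plants.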
# morningglory = assay: Test A postemergence; type: in vivo, Ipomoea spp.; settings: Ipomoea, post-emergence, 240 h
# How it was run: as §2
# blackgrass = assay: Test C preemergence; type: in vivo, Alopecurus myosuroides; settings: Alopecurus myosuroides, pre-emergence
# How it was run: as §1
# barnyardgrass [5] = assay: Test C preemergence; type: in vivo, Echinochloa crus-galli; settings: Echinochloa crus-galli, pre-emergence
# How it was run: as §1
# Italian ryegrass [6] = assay: Test C postemergence; type: in vivo, Lolium multiflorum; settings: Lolium multiflorum, post-emergence
# How it was run: as §1
# [7] = 125 g ai/ha, 0 to 100 scale where 0 is no effect and 100 is complete control, read-out: Plant response rating, Foxtail, Giant
compound,measurement,setting,value
"N#Cc1cccc(Oc2ncc(Cl)cn2)c1-n1cc(C(F)(F)F)cn1 [Compound 58, 3-[(5-chloro-2-pyrimidinyl)oxy]-2-[4-(trifluoromethyl)-1H-pyrazol-1-yl]benzonitrile]",pest or weed control at 62 g/ha,"velvetleaf; 62 g ai/ha, preemergence, scale 0 (no effect) to 100 (complete control), read-out: Velvetleaf plant response rating",100%
same,pest or weed control at 125 g/ha,"velvetleaf; 125 g ai/ha, preemergence, scale 0 (no effect) to 100 (complete control), read-out: Velvetleaf plant response rating",100%
same,pest or weed control at 250 g/ha,"velvetleaf; 250 g ai/ha, preemergence, scale 0 (no effect) to 100 (complete control), read-out: Velvetleaf plant response rating",100%
same,pest or weed control at 31 g/ha,"velvetleaf; Preemergence, 31 g ai/ha, scale 0 to 100, 0 no effect, 100 complete control, read-out: Plant response rating, Velvetleaf",100%
same,pest or weed control at 62 g/ha,"Italian ryegrass [1]; 62 g ai/ha, preemergence, scale 0 (no effect) to 100 (complete control), read-out: Ryegrass, Italian plant response rating",90%
same,pest or weed control at 125 g/ha,"Italian ryegrass [1]; 125 g ai/ha, preemergence, scale 0 (no effect) to 100 (complete control), read-out: Ryegrass, Italian plant response rating",90%
same,pest or weed control at 250 g/ha,"Italian ryegrass [1]; 250 g ai/ha, preemergence, scale 0 (no effect) to 100 (complete control), read-out: Ryegrass, Italian plant response rating",90%
same,pest or weed control at 31 g/ha,"Italian ryegrass [1]; Preemergence, 31 g ai/ha, scale 0 to 100, 0 no effect, 100 complete control, read-out: Plant response rating, Ryegrass, Italian",90%
same,pest or weed control at 62 g/ha,"lambsquarters; 62 g ai/ha, preemergence, scale 0 (no effect) to 100 (complete control), read-out: Lambsquarters plant response rating",100%
same,pest or weed control at 125 g/ha,"lambsquarters; 125 g ai/ha, preemergence, scale 0 (no effect) to 100 (complete control), read-out: Lambsquarters plant response rating",100%
same,pest or weed control at 250 g/ha,"lambsquarters; 250 g ai/ha, preemergence, scale 0 (no effect) to 100 (complete control), read-out: Lambsquarters plant response rating",100%
same,pest or weed control at 31 g/ha,"lambsquarters; Preemergence, 31 g ai/ha, scale 0 to 100, 0 no effect, 100 complete control, read-out: Plant response rating, Lambsquarters",100%
same,"Soybean plant response rating (crop injury, 0-100 scale) at 125 g/ha","soybean; 125 g ai/ha, postemergence, read-out: Plant response rating (0 to 100), Soybean",98%
same,"Soybean plant response rating (crop injury, 0-100 scale) at 250 g/ha","soybean; 250 g ai/ha, postemergence",98%
same,"Soybean plant response rating (crop injury, 0-100 scale) at 31 g/ha","soybean; Postemergence, 31 g ai/ha, scale 0 to 100 (0 no effect, 100 complete control), 13 to 15 days",95%
same,"Soybean plant response rating (crop injury, 0-100 scale) at 62 g/ha","soybean; Postemergence, 62 g ai/ha, scale 0 to 100 (0 no effect, 100 complete control)",95%
same,plant injury at 62 g/ha,"wheat, winter; 62 g ai/ha, preemergence, scale 0 (no effect) to 100 (complete control), read-out: Wheat plant response rating",80%
same,plant injury at 125 g/ha,"wheat, winter; 125 g ai/ha, preemergence, scale 0 (no effect) to 100 (complete control), read-out: Wheat plant response rating",80%
same,plant injury at 250 g/ha,"wheat, winter; 250 g ai/ha, preemergence, scale 0 (no effect) to 100 (complete control), read-out: Wheat plant response rating",90%
same,plant injury at 31 g/ha,"wheat, winter; Preemergence, 31 g ai/ha, scale 0 to 100, 0 no effect, 100 complete control, read-out: Plant response rating, Wheat",45%
same,pest or weed control at 125 g/ha,giant foxtail [2]; [7],100%
same,pest or weed control at 500 g/ha,"giant foxtail [2]; 500 g ai/ha, 0 to 100 scale, 0 no effect, 100 complete control, approx. 10 days, read-out: Foxtail, Giant plant response rating",100%
same,pest or weed control at 125 g/ha,giant foxtail [3]; [7],100%
same,pest or weed control at 500 g/ha,"giant foxtail [3]; 500 g ai/ha, 0 to 100 scale, 0 no effect, 100 complete control, read-out: Plant response rating Foxtail, Giant",100%
same,pest or weed control at 125 g/ha,"barnyardgrass [4]; 125 g ai/ha, 0 to 100 scale where 0 is no effect and 100 is complete control, read-out: Plant response rating, Barnyardgrass",100%
same,pest or weed control at 500 g/ha,"barnyardgrass [4]; 500 g ai/ha, 0 to 100 scale, 0 no effect, 100 complete control, read-out: Plant response rating Barnyardgrass",100%
same,pest or weed control at 125 g/ha,"pigweed; 125 g ai/ha, 0 to 100 scale where 0 is no effect and 100 is complete control, read-out: Plant response rating, Pigweed",100%
same,pest or weed control at 500 g/ha,"pigweed; 240 h, 500 g ai/ha, 0 to 100 scale, 0 no effect, 100 complete control, read-out: Plant response rating Pigweed",100%
same,pest or weed control at 125 g/ha,"johnsongrass; 125 g ai/ha, postemergence, read-out: Plant response rating (0 to 100), Johnsongrass",35%
same,pest or weed control at 250 g/ha,"johnsongrass; 250 g ai/ha, postemergence, read-out: Plant response rating (0 to 100), Johnsongrass",85%
same,pest or weed control at 31 g/ha,"johnsongrass; Postemergence, 31 g ai/ha, scale 0 to 100 (0 no effect, 100 complete control), 13 to 15 days, read-out: Plant response rating, Johnsongrass",15%
same,pest or weed control at 62 g/ha,"johnsongrass; Postemergence, 62 g ai/ha, scale 0 to 100 (0 no effect, 100 complete control), read-out: Plant response rating, Johnsongrass",15%
same,pest or weed control at 250 g/ha,Heteranthera limosa,90%
same,pest or weed control at 125 g/ha,"morningglory; 125 g ai/ha, 0 to 100 scale where 0 is no effect and 100 is complete control, read-out: Plant response rating, Morningglory",100%
same,pest or weed control at 500 g/ha,"morningglory; 500 g ai/ha, 0 to 100 scale, 0 no effect, 100 complete control, read-out: Plant response rating Morningglory",100%
same,pest or weed control at 62 g/ha,"blackgrass; 62 g ai/ha, preemergence, scale 0 (no effect) to 100 (complete control), read-out: Blackgrass plant response rating",90%
same,pest or weed control at 125 g/ha,"blackgrass; 125 g ai/ha, preemergence, scale 0 (no effect) to 100 (complete control), read-out: Blackgrass plant response rating",90%
same,pest or weed control at 250 g/ha,"blackgrass; 250 g ai/ha, preemergence, scale 0 (no effect) to 100 (complete control), read-out: Blackgrass plant response rating",90%
same,pest or weed control at 31 g/ha,"blackgrass; Preemergence, 31 g ai/ha, scale 0 to 100, 0 no effect, 100 complete control, read-out: Plant response rating, Blackgrass",90%
same,pest or weed control at 62 g/ha,"barnyardgrass [5]; 62 g ai/ha, preemergence, scale 0 (no effect) to 100 (complete control), read-out: Barnyardgrass plant response rating",100%
same,pest or weed control at 125 g/ha,"barnyardgrass [5]; 125 g ai/ha, preemergence, scale 0 (no effect) to 100 (complete control), read-out: Barnyardgrass plant response rating",100%
same,pest or weed control at 250 g/ha,"barnyardgrass [5]; 250 g ai/ha, preemergence, scale 0 (no effect) to 100 (complete control), read-out: Barnyardgrass plant response rating",100%
same,pest or weed control at 31 g/ha,"barnyardgrass [5]; Preemergence, 31 g ai/ha, scale 0 to 100, 0 no effect, 100 complete control, read-out: Plant response rating, Barnyardgrass",98%
same,pest or weed control at 125 g/ha,"Italian ryegrass [6]; 125 g ai/ha, postemergence, read-out: Plant response rating (0 to 100), Ryegrass, Italian",10%
same,pest or weed control at 250 g/ha,"Italian ryegrass [6]; 250 g ai/ha, postemergence, read-out: Plant response rating (0 to 100), Ryegrass, Italian",35%
same,pest or weed control at 31 g/ha,"Italian ryegrass [6]; Postemergence, 31 g ai/ha, scale 0 to 100 (0 no effect, 100 complete control), 13 to 15 days, read-out: Plant response rating, Ryegrass, Italian",5%
same,pest or weed control at 62 g/ha,"Italian ryegrass [6]; Postemergence, 62 g ai/ha, scale 0 to 100 (0 no effect, 100 complete control), read-out: Plant response rating, Ryegrass, Italian",5%
